Literature values, collected in US20040040468A1, “Drier for printing ink and printing ink containing drier” (DAINIPPON INK AND CHEMICALS, INC., priority 2002, published 2004).

Test system: rat
Conditions: from database REGISTRY OF TOXIC EFFECTS OF CHEMICAL SUBSTANCES

Row | Substance | LD50 (rat, oral administration) [mg/kg]
1 | Manganese naphthenate | 6000
2 | Cobalt naphthenate | 3900
